Measurements reported in PubChem BioAssay (NCI).
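Method: 48-hour compound exposure of cells in 96-well plates, five concentrations, linear interpolation of endpoints. GI50 is the concentration that inhibits growth by half. The concentration for full growth arrest is given as TGI.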

Experiments:
Experiment in all cases: NCI anticancer screen, dose series, 48 h
786-0 renal = system: 786-0 renal
A498 renal = system: A498 renal
A549 NSCLC = system: A549 NSCLC
ACHN renal = system: ACHN renal
BT-549 breast = system: BT-549 breast
CAKI-1 renal = system: CAKI-1 renal
CCRF-CEM leukemia = system: CCRF-CEM leukemia
COLO 205 colon = system: COLO 205 colon
DU-145 prostate = system: DU-145 prostate
HCC-2998 colon = system: HCC-2998 colon
HCT-15 colon = system: HCT-15 colon
HL-60(TB) leukemia = system: HL-60(TB) leukemia
HOP-62 NSCLC = system: HOP-62 NSCLC
HOP-92 NSCLC = system: HOP-92 NSCLC
HS 578T breast = system: HS 578T breast
HT29 colon = system: HT29 colon
IGROV1 ovarian = system: IGROV1 ovarian
K-562 leukemia = system: K-562 leukemia
KM12 colon = system: KM12 colon
LOX IMVI melanoma = system: LOX IMVI melanoma
MALME-3M melanoma = system: MALME-3M melanoma
MCF7 breast = system: MCF7 breast
MDA-MB-435 = system: MDA-MB-435
MDA-MB-468 breast = system: MDA-MB-468 breast
MOLT-4 leukemia = system: MOLT-4 leukemia
NCI-H226 lung = system: NCI-H226 lung
NCI-H23 lung = system: NCI-H23 lung
NCI-H460 lung = system: NCI-H460 lung
NCI-H522 lung = system: NCI-H522 lung
NCI/ADR-RES ovarian = system: NCI/ADR-RES ovarian
OVCAR-3 ovarian = system: OVCAR-3 ovarian
OVCAR-4 ovarian = system: OVCAR-4 ovarian
OVCAR-5 ovarian = system: OVCAR-5 ovarian
OVCAR-8 ovarian = system: OVCAR-8 ovarian
PC-3 prostate = system: PC-3 prostate
RPMI-8226 leukemia = system: RPMI-8226 leukemia
RXF 393 renal = system: RXF 393 renal
SF-268 CNS = system: SF-268 CNS
SF-295 CNS = system: SF-295 CNS
SF-539 CNS = system: SF-539 CNS
SK-MEL-28 melanoma = system: SK-MEL-28 melanoma
SK-MEL-5 melanoma = system: SK-MEL-5 melanoma
SK-OV-3 ovarian = system: SK-OV-3 ovarian
SN12C renal = system: SN12C renal
SNB-19 CNS = system: SNB-19 CNS
SR leukemia = system: SR leukemia
SW-620 colon = system: SW-620 colon
T-47D breast = system: T-47D breast
TK-10 renal = system: TK-10 renal
U251 CNS = system: U251 CNS
UACC-257 melanoma = system: UACC-257 melanoma
UACC-62 melanoma = system: UACC-62 melanoma

For O=C(Nc1cc(Cl)cc(Cl)c1)Nc1cc(Cl)cc(Cl)c1, the GI50 (786-0 renal) was 3 µM, the TGI (786-0 renal) was > 100 µM and the GI50 (A498 renal) was 2.24 µM. The TGI (A498 renal) was 6.51 µM, the GI50 (A549 NSCLC) was 2.02 µM and the TGI (A549 NSCLC) was > 100 µM. The GI50 (ACHN renal) was 2.75 µM, the TGI (ACHN renal) was > 100 µM and the GI50 (BT-549 breast) was 2.45 µM. For the same compound, the TGI (BT-549 breast) was 7.85 µM, the GI50 (CAKI-1 renal) was 2.79 µM and the TGI (CAKI-1 renal) was > 100 µM. For the same compound, the GI50 (CCRF-CEM leukemia) was 2.55 µM, the TGI (CCRF-CEM leukemia) was 8.04 µM and the GI50 (COLO 205 colon) was 1.99 µM. For the same compound, the TGI (COLO 205 colon) was 3.5 µM, the GI50 (DU-145 prostate) was 3.89 µM and the TGI (DU-145 prostate) was > 100 µM. For the same compound, the GI50 (HCC-2998 colon) was 3.13 µM, the TGI (HCC-2998 colon) was > 100 µM and the GI50 (HCT-15 colon) was 2.18 µM. The TGI (HCT-15 colon) was > 100 µM, the GI50 (HL-60(TB) leukemia) was 1.57 µM and the TGI (HL-60(TB) leukemia) was 4.07 µM. For the same compound, the GI50 (HOP-62 NSCLC) was 2.61 µM, the TGI (HOP-62 NSCLC) was 8.74 µM and the GI50 (HOP-92 NSCLC) was 1.99 µM. It also gave a TGI (HOP-92 NSCLC) of 6.02 µM, a GI50 (HS 578T breast) of 2.69 µM and a TGI (HS 578T breast) of 8.47 µM. The GI50 (HT29 colon) was 2.88 µM, the TGI (HT29 colon) was 14.9 µM and the GI50 (IGROV1 ovarian) was 3.52 µM. For the same compound, the TGI (IGROV1 ovarian) was > 100 µM, the GI50 (K-562 leukemia) was 2.5 µM and the TGI (K-562 leukemia) was 12.8 µM. It also gave a GI50 (KM12 colon) of 2.97 µM, a TGI (KM12 colon) of 9.44 µM and a GI50 (LOX IMVI melanoma) of 2.1 µM. The TGI (LOX IMVI melanoma) was 4.54 µM, the GI50 (MALME-3M melanoma) was 1.92 µM and the TGI (MALME-3M melanoma) was 5.13 µM. It also gave a GI50 (MCF7 breast) of 2.28 µM, a TGI (MCF7 breast) of 7.37 µM and a GI50 (MDA-MB-435) of 3.11 µM. For the same compound, the TGI (MDA-MB-435) was > 100 µM, the GI50 (MDA-MB-468 breast) was 2.27 µM and the TGI (MDA-MB-468 breast) was 6.48 µM. It also gave a GI50 (MOLT-4 leukemia) of 1.82 µM, a TGI (MOLT-4 leukemia) of 4.42 µM and a GI50 (NCI-H226 lung) of 2.95 µM. For the same compound, the TGI (NCI-H226 lung) was > 100 µM, the GI50 (NCI-H23 lung) was 1.86 µM and the TGI (NCI-H23 lung) was 5.55 µM. The GI50 (NCI-H460 lung) was 2.11 µM, the TGI (NCI-H460 lung) was > 100 µM and the GI50 (NCI-H522 lung) was 1.23 µM. The TGI (NCI-H522 lung) was 5.22 µM, the GI50 (NCI/ADR-RES ovarian) was 2.17 µM and the TGI (NCI/ADR-RES ovarian) was 8.41 µM. The GI50 (OVCAR-3 ovarian) was 2.92 µM, the TGI (OVCAR-3 ovarian) was > 100 µM and the GI50 (OVCAR-4 ovarian) was 3.54 µM. The TGI (OVCAR-4 ovarian) was > 100 µM, the GI50 (OVCAR-5 ovarian) was 2.91 µM and the TGI (OVCAR-5 ovarian) was > 100 µM. For the same compound, the GI50 (OVCAR-8 ovarian) was 2.9 µM, the TGI (OVCAR-8 ovarian) was > 100 µM and the GI50 (PC-3 prostate) was 2.42 µM. The TGI (PC-3 prostate) was > 100 µM, the GI50 (RPMI-8226 leukemia) was 0.861 µM and the TGI (RPMI-8226 leukemia) was 3.97 µM. For the same compound, the GI50 (RXF 393 renal) was 2.56 µM, the TGI (RXF 393 renal) was 8.66 µM and the GI50 (SF-268 CNS) was 3.31 µM. For the same compound, the TGI (SF-268 CNS) was > 100 µM, the GI50 (SF-295 CNS) was 1.74 µM and the TGI (SF-295 CNS) was 4.4 µM. For the same compound, the GI50 (SF-539 CNS) was 2.26 µM, the TGI (SF-539 CNS) was 6.07 µM and the GI50 (SK-MEL-28 melanoma) was 2.75 µM. For the same compound, the TGI (SK-MEL-28 melanoma) was > 100 µM, the GI50 (SK-MEL-5 melanoma) was 1.74 µM and the TGI (SK-MEL-5 melanoma) was 3.28 µM. For the same compound, the GI50 (SK-OV-3 ovarian) was 2.4 µM, the TGI (SK-OV-3 ovarian) was 6.31 µM and the GI50 (SN12C renal) was 2.66 µM. For the same compound, the TGI (SN12C renal) was 9.92 µM, the GI50 (SNB-19 CNS) was 3.05 µM and the TGI (SNB-19 CNS) was > 100 µM. For the same compound, the GI50 (SR leukemia) was 1.72 µM, the TGI (SR leukemia) was 4.1 µM and the GI50 (SW-620 colon) was 3.4 µM. The TGI (SW-620 colon) was > 100 µM, the GI50 (T-47D breast) was 3.04 µM and the TGI (T-47D breast) was > 100 µM. For the same compound, the GI50 (TK-10 renal) was 3.27 µM, the TGI (TK-10 renal) was > 100 µM and the GI50 (U251 CNS) was 2.75 µM. For the same compound, the TGI (U251 CNS) was 11.5 µM, the GI50 (UACC-257 melanoma) was 2.35 µM and the TGI (UACC-257 melanoma) was 6.42 µM. The GI50 (UACC-62 melanoma) was 2.48 µM and the TGI (UACC-62 melanoma) was 14.3 µM.
